Measurements reported in publication PMC9141920, “Identification and Characterization of Dipeptidyl Peptidase-IV Inhibitory Peptides from Oat Proteins” (Foods, 2022).
Where two headings read alike, the source gives them in different places. Where a SMILES comes first, the peptide text is derived from it.

Key:
human DPP-IV = target: T1, human DPP-IV (Homo sapiens, UniProt P27487); experiment: DPP-IV inhibitory activity assay with Gly-Pro-AMC as the substrate; format: biochemical; conditions: for IC50: peptides, Gly-Pro-AMC substrate
T1 construct: purchased Sigma-Aldrich
T1 sequence (P27487 whole entry): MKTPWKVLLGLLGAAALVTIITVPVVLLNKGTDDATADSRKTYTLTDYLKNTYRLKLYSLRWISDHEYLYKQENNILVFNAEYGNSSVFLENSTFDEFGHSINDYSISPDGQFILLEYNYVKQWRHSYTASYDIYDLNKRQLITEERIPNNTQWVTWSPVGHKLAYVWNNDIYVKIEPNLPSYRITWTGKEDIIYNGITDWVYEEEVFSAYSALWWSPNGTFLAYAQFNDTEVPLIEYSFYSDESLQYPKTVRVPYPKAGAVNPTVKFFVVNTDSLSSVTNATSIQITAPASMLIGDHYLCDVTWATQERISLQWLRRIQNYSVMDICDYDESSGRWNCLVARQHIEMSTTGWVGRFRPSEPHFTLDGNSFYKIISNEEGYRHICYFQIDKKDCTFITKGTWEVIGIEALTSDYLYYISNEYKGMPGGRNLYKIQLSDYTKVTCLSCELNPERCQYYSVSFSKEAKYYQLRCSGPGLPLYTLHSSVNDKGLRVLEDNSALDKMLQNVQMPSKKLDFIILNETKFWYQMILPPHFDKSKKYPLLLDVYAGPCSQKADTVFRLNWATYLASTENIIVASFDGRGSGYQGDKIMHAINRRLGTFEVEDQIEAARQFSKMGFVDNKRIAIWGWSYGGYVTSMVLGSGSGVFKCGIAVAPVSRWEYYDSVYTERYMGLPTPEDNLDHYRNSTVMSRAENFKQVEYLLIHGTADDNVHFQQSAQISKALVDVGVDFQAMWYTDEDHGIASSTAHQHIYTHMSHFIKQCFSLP
Procedure: The DPP-IV inhibitory activity assay of the sample was performed using Gly-Pro-AMC as the substrate, as previously described. Briefly, 50 µL Gly-Pro-AMC (0.2 mM) was added to a 40 µL sample (dissolved in 100 mM HEPES buffer) and incubated for 10 min at 37 °C. The reaction was initiated by adding 10 µL DPP-IV enzyme solution (10 U/L). After being incubated for 60 min at 37 °C, the reaction was terminated by adding 100 µL sodium acetate buffer (1 M, pH 4.0). The fluorescence intensity of the mixture was measured with an excitation wavelength of 350 nm and an emission wavelength of 440 nm. The control group used the HEPES buffer instead of the sample. The blank group used the HEPES buffer instead of the sample and DPP-IV enzyme solution. The DPP-IV inhibitory activity of the sample was calculated as follows:(2) DPP-IV inhibitory activity (%)=(Ac− Ab) − (As−Ab)/(Ac−Ab)×100% where As, Ac, and Ab are the intensity of the fluorescence of the sample, control, and blank groups, respectively. The half-maximal inhibitory concentration (IC50) of the sample was calculated according to the DPP-IV inhibition activity against the concentrations of the sample. In addition, the type of inhibition of the sample was obtained from the Lineweaver–Burk equation and double reciprocal plots.

DPP-IV [1] = conditions: cited from earlier work; for Inhibition mode on DPP-IV: similar results reported
DPP-IV [2] = tested on: DPP-IV; design: method as in PMID 6427168; conditions: Gly-Pro-pNA as the substrate; read-out: DPP-IV inhibition IC50; cited from earlier work
[3] = Ruditapes Philippinarum protein-derived peptides
[4] = camel milk protein-derived peptides
[5] = Chlorella Vulgaris protein-derived peptides
[6] = wheat-derived peptides, read-out: DPP-IV inhibition IC50

CC(C)[C@H](NC(=O)[C@H](C)NC(=O)[C@H](C)N)C(=O)N1CCC[C@H]1C(=O)N[C@@H](Cc1ccccc1)C(=O)O [AAVPF] (H-AAVPF-OH)
inhibition at 25 µM (human DPP-IV): 5.42 ± 3.61%
inhibition at 50 µM (human DPP-IV): 16.7 ± 3.38%
inhibition at 100 µM (human DPP-IV): 28.9 ± 2.62%
inhibition at 200 µM (human DPP-IV): 39.9 ± 2.79%
inhibition at 400 µM (human DPP-IV): 59.8 ± 2.84%
IC50 (human DPP-IV): 282 ± 27.2 µM

CC[C@H](C)[C@H](N)C(=O)N1CCC[C@H]1C(=O)N[C@@H](CCC(N)=O)C(=O)N[C@@H](Cc1c[nH]cn1)C(=O)N[C@@H](Cc1ccc(O)cc1)C(=O)O [IPQHY] (H-IPQHY-OH)
inhibition at 25 µM (human DPP-IV): 49.4 ± 1.19%
inhibition at 50 µM (human DPP-IV): 66.9 ± 1.46%
inhibition at 100 µM (human DPP-IV): 82.67 ± 0.74%
inhibition at 200 µM (human DPP-IV): 91 ± 1.2%
inhibition at 400 µM (human DPP-IV): 95.84 ± 0.52%
IC50 (human DPP-IV): 25.7 ± 1.06 µM

CC(C)C[C@H](N)C(=O)N1CCC[C@H]1C(=O)N[C@@H](CCC(N)=O)C(=O)N[C@@H](Cc1c[nH]cn1)C(=O)N[C@@H](Cc1ccc(O)cc1)C(=O)O [LPQHY] (H-LPQHY-OH)
inhibition at 25 µM (human DPP-IV): 21.3 ± 4.86%
inhibition at 50 µM (human DPP-IV): 37.4 ± 4.24%
inhibition at 100 µM (human DPP-IV): 62.6 ± 1.21%
inhibition at 200 µM (human DPP-IV): 80.4 ± 4.84%
inhibition at 400 µM (human DPP-IV): 89.87 ± 0.41%

CC(C)C[C@H](N)C(=O)N1CCC[C@H]1C(=O)N[C@@H](CCC(N)=O)C(=O)N[C@@H](Cc1ccc(O)cc1)C(=O)N[C@@H](CCC(N)=O)C(=O)N[C@@H](C)C(=O)O [LPQYQA] (H-LPQYQA-OH)
inhibition at 200 µM (human DPP-IV): 5.59 ± 3.1%
inhibition at 400 µM (human DPP-IV): 29.8 ± 2.5%

CSCC[C@H](N)C(=O)N[C@@H](C)C(=O)NCC(=O)N[C@@H](CCC(N)=O)C(=O)N[C@H](C(=O)N[C@@H](Cc1ccccc1)C(=O)O)C(C)C [MAGQVF] (H-MAGQVF-OH)
inhibition at 25 µM (human DPP-IV): 10.4 ± 4.35%
inhibition at 50 µM (human DPP-IV): 13 ± 2.11%
inhibition at 100 µM (human DPP-IV): 26.7 ± 3.49%
inhibition at 200 µM (human DPP-IV): 49.4 ± 1.9%
inhibition at 400 µM (human DPP-IV): 67.5 ± 2.97%
IC50 (human DPP-IV): 223 ± 6.16 µM

O=C(N[C@@H](CS)C(=O)N1CCC[C@H]1C(=O)O)[C@H](Cc1c[nH]cn1)NC(=O)[C@@H]1CCCN1C(=O)[C@@H]1CCCN1 [PPHCP] (H-PPHCP-OH; N-terminus and C-terminus assumed)
inhibition at 25 µM (human DPP-IV): 4.42 ± 3.95%
inhibition at 50 µM (human DPP-IV): 29.9 ± 1.84%
inhibition at 100 µM (human DPP-IV): 58.9 ± 1.1%
inhibition at 200 µM (human DPP-IV): 81.35 ± 0.48%
inhibition at 400 µM (human DPP-IV): 89.29 ± 0.45%

CC(C)[C@H](N)C(=O)N[C@@H](C)C(=O)N[C@@H](CCC(=O)O)C(=O)N[C@H](C(=O)N1CCC[C@H]1C(=O)N[C@@H](Cc1ccccc1)C(=O)O)C(C)C [VAEVPF] (H-VAEVPF-OH)
inhibition at 25 µM (human DPP-IV): 33 ± 12.3%
inhibition at 50 µM (human DPP-IV): 43.4 ± 2.27%
inhibition at 100 µM (human DPP-IV): 58.2 ± 3.86%
inhibition at 200 µM (human DPP-IV): 74.2 ± 2.32%
inhibition at 400 µM (human DPP-IV): 86.2 ± 0.96%
IC50 (human DPP-IV): 65.3 ± 13.1 µM

CC(C)[C@H](N)C(=O)N[C@@H](C)C(=O)N[C@H](C(=O)N[C@H](C(=O)N1CCC[C@H]1C(=O)N[C@@H](Cc1ccccc1)C(=O)O)C(C)C)C(C)C [VAVVPF] (H-VAVVPF-OH)
inhibition at 25 µM (human DPP-IV): 42.9 ± 2.31%
inhibition at 50 µM (human DPP-IV): 61.5 ± 5.19%
inhibition at 100 µM (human DPP-IV): 66 ± 4.07%
inhibition at 200 µM (human DPP-IV): 78.9 ± 1.23%
inhibition at 400 µM (human DPP-IV): 87.99 ± 0.39%
IC50 (human DPP-IV): 33.9 ± 4.83 µM

CC(C)C[C@H](NC(=O)[C@@H]1CCCN1C(=O)[C@@H](N)C(C)C)C(=O)NCC(=O)NCC(=O)N[C@@H](Cc1ccccc1)C(=O)O [VPLGGF] (H-VPLGGF-OH)
inhibition at 25 µM (human DPP-IV): 34 ± 0.76%
inhibition at 50 µM (human DPP-IV): 55.9 ± 1.86%
inhibition at 100 µM (human DPP-IV): 74.4 ± 0.88%
inhibition at 200 µM (human DPP-IV): 86.7 ± 1.1%
inhibition at 400 µM (human DPP-IV): 92.67 ± 0.36%
IC50 (human DPP-IV): 40.2 ± 0.95 µM

CC(C)[C@H](N)C(=O)N1CCC[C@H]1C(=O)N[C@@H](CCC(N)=O)C(=O)N[C@@H](Cc1c[nH]cn1)C(=O)N[C@@H](Cc1ccc(O)cc1)C(=O)O [VPQHY] (H-VPQHY-OH)
inhibition at 25 µM (human DPP-IV): 40.5 ± 4.59%
inhibition at 50 µM (human DPP-IV): 69.3 ± 4.66%
inhibition at 100 µM (human DPP-IV): 78.8 ± 2.17%
inhibition at 200 µM (human DPP-IV): 87.25 ± 0.25%
inhibition at 400 µM (human DPP-IV): 94.3 ± 0.28%
IC50 (human DPP-IV): 30.8 ± 1.93 µM

FAGDDAPR [Ruditapes Philippinarum protein-derived peptide]
Inhibition mode on DPP-IV (DPP-IV [1]; [3]): mixed-type inhibitors

FAGDDAPRA [Ruditapes Philippinarum protein-derived peptide]
Inhibition mode on DPP-IV (DPP-IV [1]; [3]): mixed-type inhibitors

FLMESH
Inhibition mode on DPP-IV (DPP-IV [1]; [3]): mixed-type inhibitors

ILDKVGINY [camel milk protein-derived peptide]
Inhibition mode on DPP-IV (DPP-IV [1]; [4]): mixed-type inhibitors

IPR
Inhibition mode on DPP-IV (DPP-IV [1]; [5]): mixed-type inhibitors

LQAFEPLR
IC50 (DPP-IV [1]; peptide from tryptic hydrolysate of oat globulin, read-out: DPP-IV inhibitory activity IC50): 104 µM

MPF
IC50 (DPP-IV [1]; [6]): ~500 µM

SPVVPF
Inhibition mode on DPP-IV (DPP-IV [1]; [4]): mixed-type inhibitors

VAVPV
IC50 (DPP-IV [1]; [6]): ~500 µM

VPL
IC50 (DPP-IV [2]): 16.8 µM

VPW
Inhibition mode on DPP-IV (DPP-IV [1]; [5]): mixed-type inhibitors
